From ChEMBL document CHEMBL1817560, “Selectivity of kinase inhibitor fragments” (J Med Chem, 2011) come the findings set out here.

Each structure is given as a SMILES string.

Test [1] concerns the target T1, Mitogen-activated protein kinase kinase kinase 5 (Homo sapiens) (UniProt Q99683).
T1 sequence (whole entry): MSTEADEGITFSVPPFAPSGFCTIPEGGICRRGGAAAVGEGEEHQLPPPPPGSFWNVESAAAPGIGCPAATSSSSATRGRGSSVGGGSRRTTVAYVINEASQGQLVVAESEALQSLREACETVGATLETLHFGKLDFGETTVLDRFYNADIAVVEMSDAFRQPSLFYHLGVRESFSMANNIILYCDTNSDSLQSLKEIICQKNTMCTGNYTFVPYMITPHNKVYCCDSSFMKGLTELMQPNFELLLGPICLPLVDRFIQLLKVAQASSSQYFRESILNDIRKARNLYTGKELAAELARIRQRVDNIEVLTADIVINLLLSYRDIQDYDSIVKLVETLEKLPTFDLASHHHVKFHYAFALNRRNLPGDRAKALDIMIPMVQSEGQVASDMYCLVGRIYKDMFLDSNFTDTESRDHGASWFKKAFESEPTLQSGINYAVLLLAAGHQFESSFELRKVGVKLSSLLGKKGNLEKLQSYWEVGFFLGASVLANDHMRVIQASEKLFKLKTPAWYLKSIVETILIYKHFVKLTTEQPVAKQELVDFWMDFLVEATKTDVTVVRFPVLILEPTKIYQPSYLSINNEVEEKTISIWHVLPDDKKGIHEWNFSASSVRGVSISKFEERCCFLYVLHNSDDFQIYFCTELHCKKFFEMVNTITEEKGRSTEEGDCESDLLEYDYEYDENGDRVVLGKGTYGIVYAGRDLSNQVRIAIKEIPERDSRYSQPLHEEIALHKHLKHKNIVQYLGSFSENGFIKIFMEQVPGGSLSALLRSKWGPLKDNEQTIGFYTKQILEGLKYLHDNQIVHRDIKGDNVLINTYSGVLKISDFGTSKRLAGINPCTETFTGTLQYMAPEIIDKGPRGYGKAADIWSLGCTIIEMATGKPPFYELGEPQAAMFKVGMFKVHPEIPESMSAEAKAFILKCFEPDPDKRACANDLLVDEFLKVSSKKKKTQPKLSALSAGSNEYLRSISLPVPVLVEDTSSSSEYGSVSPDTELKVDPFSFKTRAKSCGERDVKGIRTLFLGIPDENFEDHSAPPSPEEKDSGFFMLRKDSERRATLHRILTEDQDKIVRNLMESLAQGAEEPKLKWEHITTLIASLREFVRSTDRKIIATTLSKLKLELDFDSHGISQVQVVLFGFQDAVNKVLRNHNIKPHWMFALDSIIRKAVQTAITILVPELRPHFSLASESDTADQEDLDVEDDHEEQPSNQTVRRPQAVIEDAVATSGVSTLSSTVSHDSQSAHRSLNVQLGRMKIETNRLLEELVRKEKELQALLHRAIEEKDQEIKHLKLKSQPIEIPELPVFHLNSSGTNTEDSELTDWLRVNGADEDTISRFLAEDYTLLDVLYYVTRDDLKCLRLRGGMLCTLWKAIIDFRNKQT
Kind of test: Inhibition of ASK1 expressed in Escherichia coli or baculovirus-infected insect cells at 667 uM by IMAP assay.

The target of test [2] is Receptor tyrosine-protein kinase erbB-2 (Homo sapiens) (UniProt P04626). Kind of test: Inhibition of ErbB2 expressed in Escherichia coli or baculovirus-infected insect cells at 400 uM by TR-FRET assay. (In TR-FRET formats the signal depends on donor and acceptor labels being close together.)
In test [3] the target is Receptor tyrosine-protein kinase erbB-4 (Homo sapiens) (UniProt Q15303). Nature of the test: Inhibition of ErbB4 expressed in Escherichia coli or baculovirus-infected insect cells at 400 to 667 uM by TR-FRET assay.
Test [4] concerns the target T2, Tyrosine-protein kinase JAK3 (Homo sapiens) (UniProt P52333).
T2 sequence (whole entry): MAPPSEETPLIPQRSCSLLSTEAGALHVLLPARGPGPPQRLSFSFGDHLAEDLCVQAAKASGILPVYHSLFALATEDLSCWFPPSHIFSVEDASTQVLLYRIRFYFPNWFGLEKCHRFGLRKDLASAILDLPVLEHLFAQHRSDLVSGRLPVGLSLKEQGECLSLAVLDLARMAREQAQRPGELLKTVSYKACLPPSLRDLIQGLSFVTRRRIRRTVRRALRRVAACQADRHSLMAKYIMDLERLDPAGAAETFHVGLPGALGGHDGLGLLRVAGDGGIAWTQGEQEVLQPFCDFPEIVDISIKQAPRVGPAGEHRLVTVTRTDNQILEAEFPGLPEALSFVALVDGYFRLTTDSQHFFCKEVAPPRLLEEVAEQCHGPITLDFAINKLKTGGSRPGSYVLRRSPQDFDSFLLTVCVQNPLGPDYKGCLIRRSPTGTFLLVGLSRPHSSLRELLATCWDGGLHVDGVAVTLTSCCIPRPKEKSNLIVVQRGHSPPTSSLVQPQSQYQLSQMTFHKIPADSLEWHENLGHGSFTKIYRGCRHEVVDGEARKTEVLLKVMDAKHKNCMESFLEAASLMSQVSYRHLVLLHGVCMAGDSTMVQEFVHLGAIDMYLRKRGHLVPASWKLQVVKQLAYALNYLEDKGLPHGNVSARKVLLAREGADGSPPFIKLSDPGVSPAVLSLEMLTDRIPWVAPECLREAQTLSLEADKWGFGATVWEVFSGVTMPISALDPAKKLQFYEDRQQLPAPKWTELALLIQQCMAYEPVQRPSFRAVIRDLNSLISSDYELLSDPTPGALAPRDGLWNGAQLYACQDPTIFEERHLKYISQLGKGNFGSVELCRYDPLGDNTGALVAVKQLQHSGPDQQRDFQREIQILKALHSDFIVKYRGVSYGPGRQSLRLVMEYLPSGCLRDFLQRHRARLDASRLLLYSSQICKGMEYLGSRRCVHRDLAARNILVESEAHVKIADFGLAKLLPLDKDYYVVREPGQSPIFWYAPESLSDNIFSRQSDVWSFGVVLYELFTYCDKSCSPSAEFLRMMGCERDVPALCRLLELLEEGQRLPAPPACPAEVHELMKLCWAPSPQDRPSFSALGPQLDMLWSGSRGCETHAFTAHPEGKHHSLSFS
Kind of test: Inhibition of JAK3 expressed in Escherichia coli or baculovirus-infected insect cells at 667 uM by TR-FRET assay.

Test [5] addresses MAP kinase-activated protein kinase 2 (Homo sapiens) (UniProt P49137). Nature of the test: Inhibition of MK2 expressed in Escherichia coli or baculovirus-infected insect cells at 667 uM by IMAP assay.
Test [6] deals with Receptor-interacting serine/threonine-protein kinase 2 (Homo sapiens) (UniProt O43353). Kind of test: Inhibition of RIP2 expressed in Escherichia coli or baculovirus-infected insect cells at 400 uM by fluorescence polarization assay. A general note: Fluorescence polarisation rises when a labelled molecule tumbles more slowly, as on binding a larger partner.
Test [7] concerns the target 3-phosphoinositide-dependent protein kinase 1 (Homo sapiens) (UniProt O15530). Kind of test: Inhibition of PDK1 expressed in Escherichia coli or baculovirus-infected insect cells using gamma-[33P]ATP at 400 uM by scintillation proximity assay. Background: Scintillation proximity formats need no separation of bound from free tracer.

Sequence of Receptor tyrosine-protein kinase erbB-2 (Homo sapiens) (P04626 whole entry): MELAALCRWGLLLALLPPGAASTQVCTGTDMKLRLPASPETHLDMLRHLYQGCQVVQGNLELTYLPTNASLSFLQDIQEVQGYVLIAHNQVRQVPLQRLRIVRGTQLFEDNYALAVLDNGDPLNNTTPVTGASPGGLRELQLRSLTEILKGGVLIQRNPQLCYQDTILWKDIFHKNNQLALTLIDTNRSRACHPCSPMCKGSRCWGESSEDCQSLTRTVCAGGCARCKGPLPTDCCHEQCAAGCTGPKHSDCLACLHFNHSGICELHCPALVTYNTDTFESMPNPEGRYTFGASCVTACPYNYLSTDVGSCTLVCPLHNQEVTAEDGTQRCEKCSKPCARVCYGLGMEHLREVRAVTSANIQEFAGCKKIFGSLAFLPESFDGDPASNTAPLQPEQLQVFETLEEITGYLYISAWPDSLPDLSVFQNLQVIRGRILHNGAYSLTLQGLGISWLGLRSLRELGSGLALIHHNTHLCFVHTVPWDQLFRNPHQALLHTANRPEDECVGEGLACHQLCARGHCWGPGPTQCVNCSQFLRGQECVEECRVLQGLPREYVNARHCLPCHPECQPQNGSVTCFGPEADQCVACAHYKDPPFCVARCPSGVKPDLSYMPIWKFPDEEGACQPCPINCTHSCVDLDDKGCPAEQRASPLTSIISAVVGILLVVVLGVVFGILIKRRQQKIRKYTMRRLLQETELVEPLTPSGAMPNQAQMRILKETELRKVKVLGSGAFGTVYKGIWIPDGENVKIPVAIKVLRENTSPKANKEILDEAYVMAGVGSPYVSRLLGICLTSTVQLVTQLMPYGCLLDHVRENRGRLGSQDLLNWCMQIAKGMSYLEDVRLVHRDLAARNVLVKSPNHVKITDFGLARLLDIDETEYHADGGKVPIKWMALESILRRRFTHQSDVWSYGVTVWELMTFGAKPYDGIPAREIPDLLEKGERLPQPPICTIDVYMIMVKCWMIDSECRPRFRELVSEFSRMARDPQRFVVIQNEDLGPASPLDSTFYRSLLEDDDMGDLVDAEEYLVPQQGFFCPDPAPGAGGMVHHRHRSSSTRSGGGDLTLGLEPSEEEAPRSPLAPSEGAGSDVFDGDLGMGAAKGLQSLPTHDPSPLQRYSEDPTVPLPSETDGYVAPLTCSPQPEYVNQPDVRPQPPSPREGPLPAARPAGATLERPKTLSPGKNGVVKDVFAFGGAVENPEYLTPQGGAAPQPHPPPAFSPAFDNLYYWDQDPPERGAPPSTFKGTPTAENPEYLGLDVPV
Sequence of MAP kinase-activated protein kinase 2 (Homo sapiens) (P49137 whole entry, looked up): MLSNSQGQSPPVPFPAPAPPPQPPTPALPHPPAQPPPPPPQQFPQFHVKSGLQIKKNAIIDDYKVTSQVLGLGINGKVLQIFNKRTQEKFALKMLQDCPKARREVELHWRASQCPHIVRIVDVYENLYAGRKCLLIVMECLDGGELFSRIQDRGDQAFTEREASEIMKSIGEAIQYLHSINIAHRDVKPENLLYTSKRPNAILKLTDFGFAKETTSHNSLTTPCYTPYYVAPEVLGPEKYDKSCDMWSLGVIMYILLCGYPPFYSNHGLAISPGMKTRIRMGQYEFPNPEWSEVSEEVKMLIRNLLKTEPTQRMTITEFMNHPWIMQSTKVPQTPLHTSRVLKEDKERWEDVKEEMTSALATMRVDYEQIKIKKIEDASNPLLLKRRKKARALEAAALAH
Sequence of Receptor tyrosine-protein kinase erbB-4 (Homo sapiens) (Q15303 whole entry): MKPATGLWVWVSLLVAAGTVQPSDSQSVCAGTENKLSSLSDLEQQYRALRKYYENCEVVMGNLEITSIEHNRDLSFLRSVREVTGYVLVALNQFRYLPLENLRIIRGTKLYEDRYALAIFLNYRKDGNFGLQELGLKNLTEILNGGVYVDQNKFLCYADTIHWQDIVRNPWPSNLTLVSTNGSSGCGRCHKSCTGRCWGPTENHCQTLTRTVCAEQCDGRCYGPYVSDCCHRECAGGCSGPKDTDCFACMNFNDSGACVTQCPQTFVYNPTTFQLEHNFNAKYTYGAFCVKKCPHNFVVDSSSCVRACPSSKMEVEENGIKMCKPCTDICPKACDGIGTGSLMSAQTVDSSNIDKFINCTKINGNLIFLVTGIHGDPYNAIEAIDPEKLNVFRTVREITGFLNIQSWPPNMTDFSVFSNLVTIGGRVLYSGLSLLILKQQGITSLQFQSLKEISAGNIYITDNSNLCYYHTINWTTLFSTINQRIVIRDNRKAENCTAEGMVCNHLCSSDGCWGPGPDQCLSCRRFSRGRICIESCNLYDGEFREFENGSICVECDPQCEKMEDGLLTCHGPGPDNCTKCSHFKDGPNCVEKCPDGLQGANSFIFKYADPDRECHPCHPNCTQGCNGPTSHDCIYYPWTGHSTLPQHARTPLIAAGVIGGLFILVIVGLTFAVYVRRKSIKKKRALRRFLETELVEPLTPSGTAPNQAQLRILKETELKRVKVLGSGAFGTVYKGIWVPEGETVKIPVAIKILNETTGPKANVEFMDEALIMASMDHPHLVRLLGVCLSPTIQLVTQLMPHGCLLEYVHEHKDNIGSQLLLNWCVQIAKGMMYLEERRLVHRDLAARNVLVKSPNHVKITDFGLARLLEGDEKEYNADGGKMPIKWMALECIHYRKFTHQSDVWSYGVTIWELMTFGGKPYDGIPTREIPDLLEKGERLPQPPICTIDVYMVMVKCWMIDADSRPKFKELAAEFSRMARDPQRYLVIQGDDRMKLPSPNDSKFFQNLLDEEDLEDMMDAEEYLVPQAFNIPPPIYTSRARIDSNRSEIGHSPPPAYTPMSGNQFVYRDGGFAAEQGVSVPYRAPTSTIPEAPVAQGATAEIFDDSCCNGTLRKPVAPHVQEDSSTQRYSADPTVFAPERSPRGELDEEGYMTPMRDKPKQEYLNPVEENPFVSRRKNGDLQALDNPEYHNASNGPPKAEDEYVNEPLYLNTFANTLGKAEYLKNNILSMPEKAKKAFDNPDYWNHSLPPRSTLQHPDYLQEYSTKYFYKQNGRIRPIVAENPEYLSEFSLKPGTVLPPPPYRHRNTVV
Sequence of 3-phosphoinositide-dependent protein kinase 1 (Homo sapiens) (O15530 whole entry, looked up): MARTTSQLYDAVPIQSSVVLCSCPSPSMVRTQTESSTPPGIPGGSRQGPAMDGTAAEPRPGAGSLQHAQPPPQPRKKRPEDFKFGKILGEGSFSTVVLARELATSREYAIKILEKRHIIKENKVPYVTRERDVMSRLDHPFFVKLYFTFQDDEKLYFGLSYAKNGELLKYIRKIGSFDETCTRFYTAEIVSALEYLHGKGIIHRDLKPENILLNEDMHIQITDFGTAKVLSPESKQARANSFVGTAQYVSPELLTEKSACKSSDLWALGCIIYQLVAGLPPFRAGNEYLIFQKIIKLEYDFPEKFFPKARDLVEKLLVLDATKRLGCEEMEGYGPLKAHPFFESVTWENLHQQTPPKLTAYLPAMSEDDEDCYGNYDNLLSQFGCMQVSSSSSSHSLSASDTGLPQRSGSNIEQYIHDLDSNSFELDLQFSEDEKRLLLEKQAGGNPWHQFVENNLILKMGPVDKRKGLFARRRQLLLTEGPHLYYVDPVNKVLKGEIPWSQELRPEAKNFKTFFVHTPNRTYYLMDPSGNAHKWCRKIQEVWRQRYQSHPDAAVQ
Sequence of Receptor-interacting serine/threonine-protein kinase 2 (Homo sapiens) (O43353 whole entry): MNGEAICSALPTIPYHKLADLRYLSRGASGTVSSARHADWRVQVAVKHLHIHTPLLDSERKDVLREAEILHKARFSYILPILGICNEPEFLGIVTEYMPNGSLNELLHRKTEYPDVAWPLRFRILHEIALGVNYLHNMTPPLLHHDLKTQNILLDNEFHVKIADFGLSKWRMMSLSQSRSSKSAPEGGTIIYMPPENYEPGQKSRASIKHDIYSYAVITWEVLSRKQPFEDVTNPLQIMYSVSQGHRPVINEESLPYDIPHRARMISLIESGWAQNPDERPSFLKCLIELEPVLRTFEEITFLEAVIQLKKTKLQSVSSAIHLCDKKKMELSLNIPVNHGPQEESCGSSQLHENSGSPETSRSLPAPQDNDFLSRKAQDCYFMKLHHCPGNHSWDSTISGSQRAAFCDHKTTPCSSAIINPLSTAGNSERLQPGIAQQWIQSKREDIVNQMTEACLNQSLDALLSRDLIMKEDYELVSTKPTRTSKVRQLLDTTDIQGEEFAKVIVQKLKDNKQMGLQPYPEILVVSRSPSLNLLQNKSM

Broadly, the inhibition is the share of the control response that was lost under treatment. A higher inhibition goes with a strong effect. As for `CC(C)(C)c1cc(NC(=O)Nc2ccccc2)no1`, the inhibition in test [1] was found to be 3%; in test [2], 0%; in test [3], 0%; in test [4] it was 0%; in test [5] it was 28%; in test [6] it was 7%. Also, in test [7], the inhibition worked out at 25%.

Turning to `c1ccc(-c2cnc3nccnn23)cc1`, the inhibition in test [1] is 1%; in test [2], 0%; in test [3] it was 0%; in test [4], 0%; in test [5], 0%; in test [6] it was 0%. Besides, the inhibition in test [7] stood at 2%.

Consider `Cc1ccc(NC(=O)Nc2cc(C(C)(C)C)nn2-c2ccccc2)cc1`, for which the inhibition in test [1] is 13%; in test [2] it was 2%; in test [3], 0%; in test [4], 0%; in test [5], 24%; in test [6] it was 0%. The molecule further gave an inhibition in test [7] of 15%.

As to `O=C(Nc1ccccc1)Nc1ccccc1`, the inhibition in test [2] turned out to be 2%; in test [3], 0%; in test [4] it was 0%; in test [5], 18%; in test [6] it was 0%; in test [7], 20%.

As to `Nc1n[nH]c2ncccc12`, the inhibition in test [1] is 52%; in test [2] it was 9%; in test [3], 13%; in test [4], 54%; in test [5], 47%; in test [6] it was 10%. This molecule had an inhibition in test [7] of 40%.

Turning to `Cc1ccc(C(=O)NC2CC2)cc1F`, the inhibition in test [1] was 9%; in test [2], 5%; in test [3], 0%; in test [4], 0%; in test [5], 8%; in test [6], 7%. Also, the inhibition in test [7] turned out to be 11%.

For `c1n[nH]c2c1CCCC2`, the inhibition turned out to be 0% in test [2]; 0% in test [3]; 5% in test [4]; 24% in test [5]; 2% in test [6].

In the case of `Cc1ccc(NC(=O)Nc2cccc(C(F)(F)F)c2)cc1`, the inhibition in test [1] turned out to be 9%; in test [2] it was 0%; in test [3], 0%; in test [4], 0%; in test [5], 13%; in test [6], 1%. The molecule also registered an inhibition in test [7] of 15%.

Consider `O=C(Nc1ccccc1)Nc1cccc(C(F)(F)F)c1`, for which the inhibition was determined as 0% in test [1]; 0% in test [2]; 0% in test [3]; 0% in test [4]; 16% in test [5]; 0% in test [6]. Moreover, the inhibition in test [7] turned out to be 8%.

In the case of `Nc1ccc2ncc(-c3ccccc3)n2n1`, the inhibition in test [1] was 77%; in test [2], 25%; in test [3] it was 47%; in test [4], 74%; in test [5] it was 28%; in test [6] it was 69%. Besides, the inhibition in test [7] turned out to be 66%.

`Nc1ncccc1OCc1ccccc1`: the inhibition was 39% in test [1]; 21% in test [2]; 17% in test [3]; 54% in test [4]; 54% in test [5]; 94% in test [6]. This molecule displayed an inhibition in test [7] of 35%.

With `c1cnc2[nH]ccc2c1`, the inhibition in test [2] came out at 0%; in test [3] it was 5%; in test [4], 53%; in test [6], 5%; in test [7] it was 25%.

Turning to `Nc1[nH]cnc2ncnc1-2`, the inhibition in test [1] was determined as 88%; in test [2], 3%; in test [3], 9%; in test [4] it was 78%; in test [5], 80%; in test [6], 11%. This molecule also returned an inhibition in test [7] of 77%.

Take `c1ccc(Nc2ccccc2)cc1`: the inhibition in test [1] was 2%; in test [2] it was 0%; in test [3], 44%; in test [4] it was 2%; in test [5] it was 7%; in test [7] it was 9%.

On to `c1ccc2[nH]ncc2c1` [INDAZOLE], for which the inhibition worked out at 31% in test [1]; 0% in test [2]; 5% in test [3]; 29% in test [4]; 0% in test [6]; 25% in test [7].

As for `c1ccc(Nc2ncccn2)cc1`, the inhibition in test [1] worked out at 10%; in test [2], 4%; in test [3], 15%; in test [4], 36%; in test [5], 24%; in test [6], 24%. Also, in test [7], the inhibition came to 27%.

As for `Nc1[nH]nc2ccccc12`, the inhibition in test [1] was found to be 80%; in test [2], 1%; in test [3], 0%; in test [4], 72%; in test [5] it was 54%; in test [6] it was 11%. This molecule returned an inhibition in test [7] of 53%.
